In US11185499B2, “Multilayer thin film drug delivery device and methods of making and using the same” (The Regents of the University of California, priority 2011, dated 2021):

Assays:
[1] = Payload calculations and safety consideration; details: device designed for delivery over 6 months, failure
Procedure: The loading requirements for a device are analyzed based upon a zero-order release profile that maintains concentration in the posterior of the eye for at least a 4 month period. For example, based on a 5 mm×5 mm thin-film with 20 nm pores, with a void space of 50% a maximal drug load in this device is 1.3 mg of lyophilized drug, with release rates as high 2 μg/day/mm^2 based on membrane experiments. Desired release rates depend on drug affinity, vitreous half-life, and target vitreous concentration. […] Complete dose dumping for a device designed for delivery over 6 months would produce systemic drug concentration of less than 3.4 ng/ml upon failure, which falls well below the 11-27 ng/ml threshold thought to inhibit VEGF by 50%. In addition, a multi-chambered reservoir (FIG. 10) minimizes the risk that the entire drug payload could be inadvertently dumped. Based upon conservative estimates of Lucentis© half-life in the vitreous humor, a device loaded with approximately 800 μg of drug is estimated to maintain therapeutic levels for a 6 month or longer period.

[2] = Release of FITC-BSA protein from nanostructured PCL devices; type: physicochemical; details: nanostructured PCL devices (n=3), pore size 20-40 nm
Description: Multilayer thin film devices having pore sizes in the range of […]-40 nm were fabricated as described herein.

| Substance | systemic drug concentration upon complete dose dumping [1] | release rate [2] [µg/day] | time period of release [2] [days] |
| --- | --- | --- | --- |
| ranibizumab: anti-VEGF formulation (Lucentis, Genentech, Inc.) | less than 3.4 ng/ml |  |  |
| FITC-BSA: FITC-BSA protein released from nanostructured PCL devices |  | 1 | 210 |
